The values below come from patent US9513299B2, “Methods for the detection and diagnosis of malaria using an electrochemical sensor” (EMPIRE TECHNOLOGY DEVELOPMENT LLC, priority 2010, dated 2016).

Structures are written as SMILES. “Also recorded” adds a separate entry of the source.

Common to all, as to format: biochemical
One assay has as its target T1, human hemoglobin (HbA0) (Homo sapiens, UniProt P68871+P69905).
T1 construct: purchased Sigma chemicals H-267
Put plainly: Peroxidase (electrocatalytic) activity of hemoglobin immobilized on nickel coated electrode, cyclic voltammetry with H2O2. The note with it: for peroxidase activity of immobilized HbA0: IHP 150 μM or 2,3-DPG 2 mM, versus hemoglobin control (FIG. 5); for peroxidase activity of immobilized HbA0 / Electrocatalytic Activity in Healthy HbA0: 85 mM H2O2; for Electrocatalytic Activity in Healthy HbA0: change after adding modulator, IHP 150 μM, 2,3-DPG 2 mM. As for the experimental part: Crystal ferrous human hemoglobin (HbA0) was obtained from Sigma chemicals (H-267). The stock solution was prepared by dissolving 5 mg HbA0 in one milliliter of 0.05 M phosphate buffered saline (pH 7.2) (Sigma chemicals).
For the electrochemical experiments we used a computer controlled Autolab (PGSTAT) modular electrochemical system (Eco Chemie Ultecht, The Netherlands) that was operated with GPES software (Eco Chemie). All experiments were performed in a conventional three-electrode system cell with an Ag/AgCl reference electrode (BAST), a Pt wire as counter electrode, and a nickel coated chip as working electrode at ambient room temperature (21° C.).
Cyclic voltammetry was used for the immobilization of hemoglobin onto nickel coated electrodes following a similar approach as Salimi et al. To immobilize hemoglobin on the electrode surface, the electrodes were immersed in fresh 0.05 M phosphate buffer solution (pH 7.2) containing 5 mg ml-1 hemoglobin and the potential was repetitively cycled (30 scans) from 1 to −0.5 V vs. Ag/AgCI at a scan rate of 100 mV s^−1. After immobilization, the chips were washed thoroughly with phosphate buffer and subsequently subjected to cyclovoltammetric measurements in the presence of 0-8 M urea.
After hemoglobin immobilization the chips were incubated in presence of 0-8 M urea for 30 min. Hydrogen peroxide (85 mM) was added to monitor the peroxidase activity change for the unfolded protein. All the experiments were performed with the setup described for electrochemical measurements. The potential was repetitively cycled (3 scans) from −0.5 to 0.5 V vs. Ag/AgCI at a scan rate of 100 mV s^−1. In a control experiment the same electrochemical measurements were performed on a reference chip without immobilized hemoglobin.
In a control experiment, after the immobilization of hemoglobin on the chip, the tetramer dimer equilibrium was shifted towards dimer by inositol hexaphosphate at a final concentration of 150 μM and electrochemical measurements were performed. The potential was repetitively cycled (3 scans) from −0.5 to 0.5 V vs. Ag/AgCI at a scan rate of 100 mV s^−1 as described before. The peroxidase activity of hemoglobin was also measured under this condition by adding 85 mM hydrogen peroxide. In another control experiment, the same electrochemical and peroxidase activity measurements were performed on immobilized hemoglobin in presence of the tetramer stabilizer 2,3-DPG at a final concentration of 2 mM.

Assay [1] has as its target T2, hemoglobin samples from healthy subjects (Homo sapiens, UniProt P68871+P69905).
T2 construct: Hemoglobin from whole blood of test subjects is immobilized to the surface of electrodes; from tissue; host or cells: whole blood of healthy subjects
Nature of the assay: Electrocatalytic activity of immobilized hemoglobin from whole blood in the presence of allosteric modulators (Example 4). The note with it: after addition of IHP 150 μM or 2,3-DPG 2 mM; 85 mM H2O2. As for the experimental part:
(§1) The assay of this example is illustrated in FIG. 8. Hemoglobin from whole blood of test subjects is immobilized to the surface of electrodes in two separate reaction cells as described in Example 1. Hydrogen peroxide at a final concentration of 85 mM is added in PBS to monitor the electrocatalytic activity for the immobilized protein. All the experiments are performed with the setup described above. The potential is repetitively cycled (3 scans) from −0.5 to 0.5 V vs. Ag/AgCl at a scan rate of 100 mV s^−1. This device is linked to a computer to record the current.
(§2) Next, inositol hexaphosphate (IHP) is added to one of the reaction cells at a final concentration of 150 μM. IHP is used to shift the tetramer/dimer equilibrium completely towards dimer. The effects are visualized through electrochemical measurements when the potential is repetitively cycled (3 scans) from −0.5 to 0.5 V vs. Ag/AgCl at a scan rate of 100 mV s^−1.
(§3) 2,3 diphosphoglycerate (2,3-DPG) is added to the second reaction cell at a final concentration of 2 mM. The stabilization of the immobilized HbA0 by 2,3-DPG, will result in higher electrocatalytic activity than normal due to the presence of more tetrameric protein molecules.

The target of assay [2] is T3, hemoglobin samples from malaria patients (Malaria-Infected HbA0) (Homo sapiens, UniProt P68871+P69905).
T3 construct: Hemoglobin from whole blood of test subjects is immobilized to the surface of electrodes; from tissue; host or cells: whole blood of malaria patients
T3 sequence (P69905 2-142): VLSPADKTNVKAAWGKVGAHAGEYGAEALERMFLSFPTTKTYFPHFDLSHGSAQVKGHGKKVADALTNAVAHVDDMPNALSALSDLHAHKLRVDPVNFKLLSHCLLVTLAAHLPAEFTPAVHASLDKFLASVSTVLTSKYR
T3 sequence (P68871 2-147): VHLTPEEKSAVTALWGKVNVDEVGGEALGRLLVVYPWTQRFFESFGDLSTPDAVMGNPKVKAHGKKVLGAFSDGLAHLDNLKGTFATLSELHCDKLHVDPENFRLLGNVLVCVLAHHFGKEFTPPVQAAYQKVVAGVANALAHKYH
The description is as above. The settings on record: change after adding modulator; IHP 150 μM, 2,3-DPG 2 mM; 85 mM H2O2. As for the experimental part:
as §1, §2, §3

T1 sequence (P69905 2-142 limits assumed): as the sequence (P69905 2-142) above
T1 sequence (P68871 2-147 limits assumed): as the sequence (P68871 2-147) above
T2 sequence (P69905 2-142 limits assumed): as the sequence (P69905 2-142) above
T2 sequence (P68871 2-147 limits assumed): as the sequence (P68871 2-147) above

`O=P(O)(O)O[C@H]1[C@H](OP(=O)(O)O)[C@@H](OP(=O)(O)O)[C@H](OP(=O)(O)O)[C@@H](OP(=O)(O)O)[C@H]1OP(=O)(O)O` [IHP, inositol hexaphosphate]: at human hemoglobin (HbA0), the “peroxidase activity of immobilized HbA0” value is reported as “decrease” and the “Electrocatalytic Activity in Healthy HbA0” value was “Decrease”. In addition, the “current measured at the electrode surface, hemoglobin samples from healthy subjects” value in assay [1] is reported as “decrease”. Besides, in assay [2], the “Electrocatalytic Activity in Malaria-Infected HbA0” value is given as “not be a significant change; also recorded: No change”.

Take `NC(N)=O` [urea]: the “electrochemical current (peroxidase activity of hemoglobin immobilized chip)” value at human hemoglobin (HbA0) (0-8 M urea, 30 min incubation, 85 mM H2O2 (FIG. 4)) was “decrease”.

With `O=C(O)C(COP(=O)(O)O)OP(=O)(O)O` (stereo not drawn) [2,3-DPG, 2,3-diphosphoglycerate], at human hemoglobin (HbA0), the “peroxidase activity of immobilized HbA0” value is “increased” and the “Electrocatalytic Activity in Healthy HbA0” value was “Increase”. The “current measured at the electrode surface, hemoglobin samples from healthy subjects” value in assay [1] was “increase”. In assay [2], the “Electrocatalytic Activity in Malaria-Infected HbA0” value was “not be a significant change; also recorded: No change”.
